Patent publication US20230190761A1, “METHYLENE BLUE STABILIZED MRNA COMPOSITIONS” (ModernaTX, Inc., priority 2020, published 2023)
Where “and” joins values, the source holds several entries; their conditions need not be identical. Equal entries are not always repeated. Entries after “also recorded” stand apart in the source; their conditions may differ.

Legend:
Assay type in all cases: physicochemical
[1] = system: mRNA; experiment: Circular dichroism of mRNA with methylene blue; conditions: addition of methylene blue (210 μM, 367 μM)
Description: The effect of methylene blue on the conformational state of mRNA is also apparent from the circular dichroism (CD) spectra shown in FIG. 20. The CD bands correspond to the intrinsic CD of the mRNA itself. […] The stabilizing effect of methylene blue observed on mRNA may be attributed to this binding and conformational stabilization evident from the DSC thermograms (FIGS. 18 and 19).

[2] = system: mRNA; experiment: Differential scanning calorimetry of mRNA with methylene blue
Procedure: To test the effect of methylene blue on folding and intramolecular hybridization of mRNA, differential scanning calorimetry (DSC) was conducted on samples of mRNA containing no methylene blue, 50 μM methylene blue, or 100 μM methylene blue. […] At higher methylene blue concentrations (approximately 0.5 mM), precipitation of mRNA occurs, but at the concentrations of this experiment the mRNA-dye complex remains soluble. It is notable that the sharp transitions at ˜74° C. and 80° C. are not affected by the presence of dye, whereas there is a massive effect on the least thermally stable transitions occurring in the <60° C. region, shown by the large rightward shift of the curves with the addition of methylene blue. By comparison, therapeutic protein stabilization strategies commonly involve screening of excipient effects on thermal unfolding, however, the thermal shifts observed for optimized protein formulations typically involve thermal shifts of only a few degrees.
The DSC thermogram show the effects on the thermal unfolding profile of mRNA in the presence or absence of […] methylene blue. When the methylene blue-containing sample was dialyzed to remove dye, the resulting thermogram corresponded closely to that of the original no-dye sample. […] All the fine details of the thermal unfolding profile were restored post-dialysis, indicating a restoration of the original structure-function of the mRNA.

[3] = system: mRNA-LNP; experiment: DLS characterization of mRNA-LNP physical stability in presence of methylene blue
Description: Particle size (e.g., particle diameter) can be determined by Dynamic Light Scattering (DLS). DLS measures a hydrodynamic diameter. Smaller particles diffuse more quickly, leading to faster fluctuations in the scattering intensity and shorter decay times for the autocorrelation function. Larger particles diffuse more slowly, leading to slower fluctuations in the scattering intensity and longer decay times in the autocorrelation function.
In view of the surprising and somewhat counter-intuitive finding that methylene blue enhanced stability of mRNA-LNP formulations, additional experimentation was conducted. The stability of mRNA-LNPs in the presence of increasing levels of methylene blue was investigated upon incubation at 5° C., 25° C. or 40° C. for 10 days. […] In addition to chemical stability, a careful examination of the possible impact of methylene blue on the physical state of the LNP was performed using dynamic light scattering (DLS). This technique is exquisitely sensitive to tiny changes in hydrodynamic nanoparticle size, especially with respect to the formation of larger aggregates known to be a common physical degradation mode of many LNPs.
After the 3 week incubation, samples were analyzed by dynamic light scattering (DLS) to characterize the hydrodynamic diameters of LNPs.
Samples were measured by dynamic light scattering (DLS) in PBS after being filtered through 0.8 μm filters to remove large particulates.

[4] = system: mRNA within LNP formulations; experiment: Screen of molecular dyes on mRNA stability within LNP formulations (RP-HPLC)
Procedure: This example discusses the effects of various dye molecules on mRNA stability within LNP formulations. To evaluate the potential stabilization effects of dyes, LNP compositions were prepared containing 2 mM of one of 25 dyes. After incubation for 4 days at 40° C., main peak mRNA purity was measured by RP-HPLC. Variance within this study was estimated from three independent sample replicates with no dye (Sample IDs D0a, D0b and D0c as shown in Table 4) or with 2 mM methylene blue (Sample IDs D1a, D1b and D1c as shown in Table 4). […] The main peak purity measured in each mRNA-LNP formulation, as well as its difference relative to the no dye controls is shown in Table 4. Positive differences relative to no dye represent improvements in mRNA stability, and negative differences represent worsened mRNA stability.

[5] = system: mRNA encapsulated within LNPs; experiment: mRNA-LNP stability with thionine or methylene blue, main peak purity by fragmentation analysis; conditions: mRNA-LNP with incremental dye 0.01-1.5 mM, 3 weeks at room temperature and 40° C., relative to no dye
Description: mRNA purity can be determined by reverse phase high-performance liquid chromatography (RP-HPLC) size based separation. This method can be used to assess mRNA integrity by a length-based gradient RP separation and UV detection of RNA at 260 nm. As used herein “main peak” or “main peak purity” refers to the RP-HPLC signal detected from mRNA that corresponds to the full size mRNA molecule loaded within a given LNP formulation. mRNA purity can also be assessed by fragmentation analysis. Fragmentation analysis (FA) is a method by which nucleic acid (e.g., mRNA) fragments can be analyzed by capillary electrophoresis. Fragmentation analysis involves sizing and quantifying nucleic acids (e.g., mRNA), for example by using an intercalating dye coupled with an LED light source. Such analysis may be completed, for example, with a Fragment Analyzer from Advanced Analytical Technologies, Inc.
A study was performed to compare the effects of thionine, a phenothiazinium dye that permeates LNPs, with methylene blue which permeates LNPs to a lesser extent. A series of mRNA-LNP samples were prepared containing incremental levels of each dye as detailed in Table 1. These samples were incubated under two temperature conditions of room temperature and 40 C for 3 weeks prior to analysis.

intrinsic CD bands of mRNA [1]: significant perturbation in these bands
methylene blue concentration with appreciable impact to mRNA conformational stability (DSC) [2]: ~10 µM
methylene blue concentration giving dramatic global changes in overall mRNA structure (DSC) ([2]; 0.3 μM mRNA, 32.5 mM sodium acetate, pH 5.0): ≥ 367.8 µM
folded stability of mRNA (DSC thermogram) ([2]; 50 μM or 100 μM methylene blue vs no methylene blue): enormous enhancement of folded stability
reversibility of methylene blue binding to mRNA (DSC after dialysis) ([2]; 100 mM methylene blue, dialyzed to remove dye): reversible
lowest methylene blue concentration affecting the folded structure of mRNA (DSC) ([2]; mRNA at 0.3 μM): 11.3 µM
methylene blue concentration at which precipitation of mRNA occurs ([2]; mRNA in solution): approximately 0.5 mM
hydrodynamic size or size distribution (polydispersity index) of LNP by DLS ([3]; up to 2.0 mM methylene blue, 5 months refrigerated storage): no significant impact
Main Peak Purity after 4 days at 40° C. (%) ([4]; 2 mM dye in mRNA-LNP, RP-HPLC, no value (—) = physically unstable, no reliable chromatographic result, interpreted as destabilizing): 89.62% and 90.27% and 85.96%
Mean (Main Peak Purity after 4 days at 40° C.) ([4]; 2 mM dye, three independent sample replicates): 89 ± 2%
Difference relative to No Dye ([4]; main peak purity, 2 mM dye, 4 days at 40° C., ±4% interpreted as significant): 14%
SMILES: CN(C)c1ccc2nc3ccc(N(C)C)cc3[s+]c2c1 [methylene blue]
LNP size distributions and average hydrodynamic diameters by DLS ([3]; 0.5-2.0 mM methylene blue, 3 weeks refrigerated storage): does not have an impact on the overall lipid nanoparticle structure
hydrodynamic size / physical stability of the LNP by DLS ([3]; up to 6 mM methylene blue, 10 days at 5° C., 25° C. and 40° C.): no significant effect on hydrodynamic size of the LNP; also recorded: no impact on the physical stability of the mRNA-LNP
% main peak purity by fragmentation analysis (mRNA stability) [5]: stabilized it; also recorded: significantly improved mRNA stability relative to the no-dye control
